Laboratory results as given in ChEMBL document CHEMBL5233225, “Para-sulfonatocalix[n]arene-based biomaterials: Recent progress in pharmaceutical and biological applications” (Eur J Med Chem, 2020).

Columns and labels:
[1] = test system: K562; experiment: Photodynamic antitumor activity against human K562 cells assessed as mortality rate preincubated for 24 hrs followed by irradiation by UV-VIS spectrophotometer; type: functional
[2] = Haemolytic activity in human RBC measured after 30 mins by spectrophotometric analysis; type: toxicity, cell-based, Erythrocyte; conditions: red blood cells (RBC), read-out: Activity

| SMILES | Activity [1] [%] | hemolysis at 0.5 h [2] [%] |
| --- | --- | --- |
| O=S(=O)(O)c1cc2c(O)c(c1)Cc1cc(S(=O)(=O)O)cc(c1O)Cc1cc(S(=O)(=O)O)cc(c1O)Cc1cc(S(=O)(=O)O)cc(c1O)Cc1cc(S(=O)(=O)O)cc(c1O)Cc1cc(S(=O)(=O)O)cc(c1O)Cc1cc(S(=O)(=O)O)cc(c1O)Cc1cc(S(=O)(=O)O)cc(c1O)C2 | 30 | 29 |
| O=S(=O)(O)c1cc2c(O)c(c1)Cc1cc(S(=O)(=O)O)cc(c1O)Cc1cc(S(=O)(=O)O)cc(c1O)Cc1cc(S(=O)(=O)O)cc(c1O)Cc1cc(S(=O)(=O)O)cc(c1O)Cc1cc(S(=O)(=O)O)cc(c1O)C2 | 60 | 12 |
